Laboratory results as given in patent US20230133761A1, “INHIBITION OF FKBP1A FOR THE TREATMENT OF TRIPLE-NEGATIVE MAMMARY CARCINOMA” (Heinrich-Heine-Universität Düsseldorf, priority 2020, published 2023).

Columns and labels:
[1] = test system: triple-negative mammary carcinoma; assay: Combined inhibition of FKBP1A and PIN1 in triple-negative mammary carcinoma (tumor stem cell character, apoptosis induction); type: cell-based; settings: FKBP1A-specific siRNA and co-incubation with ATRA
FKBP1A = target: T1, FKBP1A (Homo sapiens, UniProt P62942); assay: Anti-tumor effect on tumor stem cell and EMT markers by PROTAC-mediated FKBP1A expression reduction; type: cell-based
T1 construct: The cells were then washed with PBS, lysed and the expression of FKBP1A was analyzed by western blotting; endogenous in cells; host or cells: MDA-MB-231

[2] = test system: SFRP2 and VEGF-stimulated in vitro tube formation; settings: cited from earlier work
[3] = test system: endothelial and breast cancer cells; settings: cited from earlier work
breast tumor xenograft = settings: in vivo; cited from earlier work

T1 sequence (P62942 whole entry): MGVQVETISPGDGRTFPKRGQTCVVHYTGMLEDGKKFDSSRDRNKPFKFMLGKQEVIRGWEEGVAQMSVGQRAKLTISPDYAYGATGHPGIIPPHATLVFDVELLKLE

Compound: CC1=C(/C=C/C(C)=C/C=C/C(C)=C/C(=O)O)C(C)(C)CCC1 [ATRA, all-trans retinoic acid]
- Effect on reduction of tumor stem cell character and ability to induce apoptosis [1]: strong synergistic effect

Compound: CO[C@H]1C[C@@H]2CC[C@@H](C)[C@@](O)(O2)C(=O)C(=O)N2CCCC[C@H]2C(=O)O[C@H]([C@H](C)C[C@@H]2CC[C@@H](OCCOCc3cn(CCOCCOCCNc4cccc5c4C(=O)N(C4CCC(=O)NC4=O)C5=O)nn3)[C@H](OC)C2)CC(=O)[C@H](C)/C=C(\C)[C@@H](O)[C@@H](OC)C(=O)[C@H](C)C[C@H](C)/C=C/C=C/C=C/1C (some centres unmarked) [FKBP12 PROTAC RC32]
- Anti-tumor effect on tumor stem cell and EMT markers compared to pure inhibition of the enzyme function of FKBP1A (FKBP1A): stronger anti-tumor effect

Compound: C=CC[C@@H]1/C=C(\C)C[C@H](C)C[C@H](OC)[C@H]2O[C@@](O)(C(=O)C(=O)N3CCCC[C@H]3C(=O)O[C@H](/C(C)=C/[C@@H]3CC[C@@H](O)[C@H](OC)C3)[C@H](C)[C@@H](O)CC1=O)[C@H](C)C[C@@H]2OC [tacrolimus]
- SFRP2 and VEGF-stimulated in vitro tube formation [2]: inhibit SFRP2 and VEGF-stimulated in vitro tube formation
- Migration of endothelial and breast cancer cells [3]: inhibit the migration of endothelial and breast cancer cells
- Breast tumor xenograft growth (breast tumor xenograft): attenuates breast tumor xenograft growth in vivo
